In PMC5218480 (PLoS ONE, 2017):

Tested on: MV-4-11 cells
Assay: Gene expression microarray analysis (Affymetrix PrimeView) and GSEA
Format: cell-based, human
Details: ProbeSet 11733176_x_at; LIST B

Question: How did the “RFU, ZNF507” value turn out when `Nc1ncn([C@@H]2O[C@H](CO)[C@@H](O)[C@H]2O)c(=O)n1` [azacitidine] was run?
Answer: The value was 25.77 RFU.
